Test results reported in ChEMBL document CHEMBL3991601, “The target landscape of clinical kinase drugs” (Science, 2017).
Structures can show the parent of a compound that is named as a salt. Activity calls are given as the source filed them. Rule as the data show it, for most assays here: actives have a measured Kd and inactives only a lower limit.

What was measured:
Activin receptor type-1 = target: T1, Activin receptor type-1 (Homo sapiens, UniProt Q04771)
T1 sequence (Q04771 whole entry): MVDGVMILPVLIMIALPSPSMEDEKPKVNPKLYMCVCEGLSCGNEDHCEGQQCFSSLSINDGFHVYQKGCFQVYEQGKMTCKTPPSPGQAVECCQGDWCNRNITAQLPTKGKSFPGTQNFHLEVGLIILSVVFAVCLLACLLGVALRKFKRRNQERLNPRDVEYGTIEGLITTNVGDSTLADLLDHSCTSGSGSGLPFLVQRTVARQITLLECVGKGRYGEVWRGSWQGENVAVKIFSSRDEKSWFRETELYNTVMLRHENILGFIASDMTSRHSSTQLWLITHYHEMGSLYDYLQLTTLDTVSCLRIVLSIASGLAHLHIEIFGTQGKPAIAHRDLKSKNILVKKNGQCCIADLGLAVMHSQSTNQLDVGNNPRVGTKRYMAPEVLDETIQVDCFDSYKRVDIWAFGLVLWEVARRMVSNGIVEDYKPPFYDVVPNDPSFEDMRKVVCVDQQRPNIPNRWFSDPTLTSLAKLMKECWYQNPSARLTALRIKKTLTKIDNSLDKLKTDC

[1] = target: T2, AarF domain-containing protein kinase 1 (Homo sapiens, UniProt Q86TW2)
T2 sequence (Q86TW2 whole entry): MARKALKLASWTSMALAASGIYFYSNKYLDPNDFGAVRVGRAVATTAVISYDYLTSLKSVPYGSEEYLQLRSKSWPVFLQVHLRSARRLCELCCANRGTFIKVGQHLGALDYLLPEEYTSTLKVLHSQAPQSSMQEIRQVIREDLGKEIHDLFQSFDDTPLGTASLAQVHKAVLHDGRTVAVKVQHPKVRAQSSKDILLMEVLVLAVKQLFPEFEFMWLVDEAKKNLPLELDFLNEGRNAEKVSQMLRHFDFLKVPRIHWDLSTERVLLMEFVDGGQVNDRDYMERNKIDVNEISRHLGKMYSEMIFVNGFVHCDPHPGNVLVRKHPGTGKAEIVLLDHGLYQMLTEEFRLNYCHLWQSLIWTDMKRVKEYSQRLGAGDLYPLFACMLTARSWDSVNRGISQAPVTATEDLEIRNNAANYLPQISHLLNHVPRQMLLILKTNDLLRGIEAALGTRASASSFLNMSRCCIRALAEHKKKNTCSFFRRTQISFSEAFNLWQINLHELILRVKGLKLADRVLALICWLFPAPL

[2] = target: Adenylate kinase 2, mitochondrial (Homo sapiens, UniProt P54819)
[3] = target: Guanine nucleotide-binding protein G(i) subunit alpha-2 (Homo sapiens, UniProt P04899)
Chain of Guanine nucleotide-binding protein G(i) subunit alpha-2 (P04899 whole entry): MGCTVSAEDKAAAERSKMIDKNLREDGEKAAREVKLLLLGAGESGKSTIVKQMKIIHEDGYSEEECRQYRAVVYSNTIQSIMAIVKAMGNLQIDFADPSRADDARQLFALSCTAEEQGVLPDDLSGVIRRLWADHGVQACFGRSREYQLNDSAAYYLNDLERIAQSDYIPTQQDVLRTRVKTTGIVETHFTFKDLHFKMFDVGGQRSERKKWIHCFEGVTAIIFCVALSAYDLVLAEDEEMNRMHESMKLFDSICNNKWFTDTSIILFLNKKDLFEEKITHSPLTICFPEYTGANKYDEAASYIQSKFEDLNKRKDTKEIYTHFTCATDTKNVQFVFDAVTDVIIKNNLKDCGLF

[4] = target: Putative heat shock protein HSP 90-beta 2 (Homo sapiens, UniProt Q58FF8)
Chain of Putative heat shock protein HSP 90-beta 2 (Q58FF8 whole entry): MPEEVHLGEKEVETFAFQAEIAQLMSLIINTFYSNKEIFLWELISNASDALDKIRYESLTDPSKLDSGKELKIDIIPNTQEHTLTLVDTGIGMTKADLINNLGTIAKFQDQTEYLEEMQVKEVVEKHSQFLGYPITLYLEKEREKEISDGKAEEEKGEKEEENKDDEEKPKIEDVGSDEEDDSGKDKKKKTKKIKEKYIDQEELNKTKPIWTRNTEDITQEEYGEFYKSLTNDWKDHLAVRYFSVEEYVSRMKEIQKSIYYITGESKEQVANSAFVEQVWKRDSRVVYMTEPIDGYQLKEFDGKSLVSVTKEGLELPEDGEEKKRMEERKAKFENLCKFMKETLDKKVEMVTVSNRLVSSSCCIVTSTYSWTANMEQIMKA

[5] = target: Dual specificity mitogen-activated protein kinase kinase 1 (Homo sapiens, UniProt Q02750)
Chain of Dual specificity mitogen-activated protein kinase kinase 1 (Q02750 whole entry): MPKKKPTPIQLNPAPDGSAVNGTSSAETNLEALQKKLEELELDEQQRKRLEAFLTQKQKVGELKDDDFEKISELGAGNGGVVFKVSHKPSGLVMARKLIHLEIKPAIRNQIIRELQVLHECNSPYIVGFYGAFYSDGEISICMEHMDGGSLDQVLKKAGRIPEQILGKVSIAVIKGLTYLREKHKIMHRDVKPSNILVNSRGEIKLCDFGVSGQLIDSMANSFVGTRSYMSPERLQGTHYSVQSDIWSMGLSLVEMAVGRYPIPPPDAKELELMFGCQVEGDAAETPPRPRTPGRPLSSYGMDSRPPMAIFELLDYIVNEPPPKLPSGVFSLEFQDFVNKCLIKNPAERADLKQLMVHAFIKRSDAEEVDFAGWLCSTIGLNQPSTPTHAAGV

[6] = target: T3, Mitogen-activated protein kinase kinase kinase kinase 2 (Homo sapiens, UniProt Q12851)
T3 sequence (Q12851 whole entry): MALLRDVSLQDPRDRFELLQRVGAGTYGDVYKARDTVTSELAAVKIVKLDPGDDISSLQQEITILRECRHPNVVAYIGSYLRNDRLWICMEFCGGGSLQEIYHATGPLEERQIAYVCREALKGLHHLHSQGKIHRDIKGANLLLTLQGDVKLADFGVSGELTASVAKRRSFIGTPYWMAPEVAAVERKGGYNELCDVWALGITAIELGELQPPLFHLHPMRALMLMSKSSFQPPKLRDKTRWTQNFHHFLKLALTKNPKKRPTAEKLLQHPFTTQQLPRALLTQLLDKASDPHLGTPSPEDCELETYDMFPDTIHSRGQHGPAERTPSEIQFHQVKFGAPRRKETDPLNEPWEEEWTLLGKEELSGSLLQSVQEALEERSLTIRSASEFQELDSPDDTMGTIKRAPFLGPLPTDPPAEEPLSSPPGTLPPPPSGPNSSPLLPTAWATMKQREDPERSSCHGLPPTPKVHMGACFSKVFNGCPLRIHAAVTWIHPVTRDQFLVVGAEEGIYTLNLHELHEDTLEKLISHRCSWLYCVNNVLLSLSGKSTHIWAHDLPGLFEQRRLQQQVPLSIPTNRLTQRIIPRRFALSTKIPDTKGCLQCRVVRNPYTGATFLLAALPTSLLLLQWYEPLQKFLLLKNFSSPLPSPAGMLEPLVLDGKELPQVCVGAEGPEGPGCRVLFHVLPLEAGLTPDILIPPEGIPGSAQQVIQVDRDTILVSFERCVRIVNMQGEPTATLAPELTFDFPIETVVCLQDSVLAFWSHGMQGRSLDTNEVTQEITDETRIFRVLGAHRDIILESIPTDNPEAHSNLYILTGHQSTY

[7] = target: Mitogen-activated protein kinase kinase kinase kinase 4 (Homo sapiens, UniProt O95819)
Chain of Mitogen-activated protein kinase kinase kinase kinase 4 (O95819 whole entry): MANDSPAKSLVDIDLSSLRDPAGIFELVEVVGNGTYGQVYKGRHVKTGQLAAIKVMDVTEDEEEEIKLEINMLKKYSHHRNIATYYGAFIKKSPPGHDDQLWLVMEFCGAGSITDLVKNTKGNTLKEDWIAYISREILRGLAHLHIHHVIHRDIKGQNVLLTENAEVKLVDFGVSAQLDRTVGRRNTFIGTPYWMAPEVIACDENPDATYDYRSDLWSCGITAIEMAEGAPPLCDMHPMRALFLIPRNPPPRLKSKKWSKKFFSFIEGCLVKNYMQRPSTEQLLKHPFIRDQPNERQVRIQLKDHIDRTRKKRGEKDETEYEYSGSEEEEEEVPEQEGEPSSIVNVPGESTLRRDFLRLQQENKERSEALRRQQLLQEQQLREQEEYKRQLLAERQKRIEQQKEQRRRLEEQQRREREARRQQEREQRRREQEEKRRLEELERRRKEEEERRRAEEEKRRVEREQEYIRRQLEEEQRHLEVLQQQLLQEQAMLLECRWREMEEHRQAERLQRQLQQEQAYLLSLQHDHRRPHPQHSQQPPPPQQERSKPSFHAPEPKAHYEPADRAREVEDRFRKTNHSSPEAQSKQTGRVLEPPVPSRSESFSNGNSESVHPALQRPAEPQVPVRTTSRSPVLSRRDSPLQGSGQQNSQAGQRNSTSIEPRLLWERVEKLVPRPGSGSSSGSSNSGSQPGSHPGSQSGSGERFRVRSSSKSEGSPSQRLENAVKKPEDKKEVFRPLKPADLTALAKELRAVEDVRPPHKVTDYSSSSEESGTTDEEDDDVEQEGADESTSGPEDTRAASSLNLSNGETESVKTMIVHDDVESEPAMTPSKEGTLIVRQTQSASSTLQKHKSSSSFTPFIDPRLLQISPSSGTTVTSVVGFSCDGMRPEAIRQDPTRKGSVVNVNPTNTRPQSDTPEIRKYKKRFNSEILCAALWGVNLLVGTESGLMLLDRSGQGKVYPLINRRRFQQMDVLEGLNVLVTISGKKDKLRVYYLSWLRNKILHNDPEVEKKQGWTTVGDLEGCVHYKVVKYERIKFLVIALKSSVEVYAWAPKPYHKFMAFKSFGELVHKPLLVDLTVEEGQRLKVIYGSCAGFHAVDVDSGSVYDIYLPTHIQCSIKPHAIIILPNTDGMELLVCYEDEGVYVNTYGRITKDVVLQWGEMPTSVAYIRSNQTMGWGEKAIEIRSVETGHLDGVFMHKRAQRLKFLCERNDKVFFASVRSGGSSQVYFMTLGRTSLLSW

[8] = target: Macrophage-stimulating protein receptor (Homo sapiens, UniProt Q04912)
Chain of Macrophage-stimulating protein receptor (Q04912 25-304 limits assumed): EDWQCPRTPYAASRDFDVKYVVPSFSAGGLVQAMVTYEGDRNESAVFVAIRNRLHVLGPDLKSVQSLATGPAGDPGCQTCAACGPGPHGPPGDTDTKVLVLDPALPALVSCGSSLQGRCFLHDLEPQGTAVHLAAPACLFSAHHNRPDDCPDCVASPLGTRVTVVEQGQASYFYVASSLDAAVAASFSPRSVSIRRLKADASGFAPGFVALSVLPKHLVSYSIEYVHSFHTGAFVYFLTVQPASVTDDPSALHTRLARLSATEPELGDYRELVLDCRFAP
Chain of Macrophage-stimulating protein receptor (Q04912 310-1400 limits assumed): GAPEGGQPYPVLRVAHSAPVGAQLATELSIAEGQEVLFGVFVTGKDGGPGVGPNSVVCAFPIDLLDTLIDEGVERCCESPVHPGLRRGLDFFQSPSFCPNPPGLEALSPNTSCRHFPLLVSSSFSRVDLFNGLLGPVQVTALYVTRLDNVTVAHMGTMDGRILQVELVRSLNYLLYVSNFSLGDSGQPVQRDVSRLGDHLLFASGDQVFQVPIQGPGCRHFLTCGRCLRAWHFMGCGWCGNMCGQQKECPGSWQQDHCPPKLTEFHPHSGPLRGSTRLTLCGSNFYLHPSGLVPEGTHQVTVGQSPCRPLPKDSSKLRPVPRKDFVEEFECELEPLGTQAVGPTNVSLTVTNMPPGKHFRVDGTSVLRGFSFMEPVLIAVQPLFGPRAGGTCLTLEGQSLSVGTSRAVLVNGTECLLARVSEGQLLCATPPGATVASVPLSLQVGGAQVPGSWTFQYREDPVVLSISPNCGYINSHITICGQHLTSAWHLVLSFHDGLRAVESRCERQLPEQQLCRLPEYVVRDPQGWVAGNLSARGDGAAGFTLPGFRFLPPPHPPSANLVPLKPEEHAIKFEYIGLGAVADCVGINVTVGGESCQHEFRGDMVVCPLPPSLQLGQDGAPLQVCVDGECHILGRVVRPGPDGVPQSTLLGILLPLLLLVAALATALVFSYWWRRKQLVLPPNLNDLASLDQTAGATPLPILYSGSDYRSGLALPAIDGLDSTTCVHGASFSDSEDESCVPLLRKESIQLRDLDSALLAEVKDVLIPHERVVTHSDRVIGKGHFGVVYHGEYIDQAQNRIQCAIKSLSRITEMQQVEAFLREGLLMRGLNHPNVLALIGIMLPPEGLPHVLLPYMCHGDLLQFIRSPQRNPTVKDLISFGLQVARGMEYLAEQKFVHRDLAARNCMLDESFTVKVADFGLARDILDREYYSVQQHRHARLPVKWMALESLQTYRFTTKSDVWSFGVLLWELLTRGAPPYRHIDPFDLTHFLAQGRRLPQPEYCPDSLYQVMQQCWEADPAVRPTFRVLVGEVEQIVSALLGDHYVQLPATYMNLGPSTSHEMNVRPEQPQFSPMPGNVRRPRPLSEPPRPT

[9] = target: T4, Ras-related protein Rab-27A (Homo sapiens, UniProt P51159)
T4 sequence (P51159 whole entry): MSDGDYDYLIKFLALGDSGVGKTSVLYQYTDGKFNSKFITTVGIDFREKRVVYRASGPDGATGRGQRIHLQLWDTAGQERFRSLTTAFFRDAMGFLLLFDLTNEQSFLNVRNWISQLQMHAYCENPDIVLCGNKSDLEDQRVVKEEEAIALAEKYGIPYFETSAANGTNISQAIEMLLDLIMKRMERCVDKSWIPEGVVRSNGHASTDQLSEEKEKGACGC

ADP/ATP translocase 2 = target: T5, ADP/ATP translocase 2 (Homo sapiens, UniProt P05141)
T5 sequence (P05141 whole entry): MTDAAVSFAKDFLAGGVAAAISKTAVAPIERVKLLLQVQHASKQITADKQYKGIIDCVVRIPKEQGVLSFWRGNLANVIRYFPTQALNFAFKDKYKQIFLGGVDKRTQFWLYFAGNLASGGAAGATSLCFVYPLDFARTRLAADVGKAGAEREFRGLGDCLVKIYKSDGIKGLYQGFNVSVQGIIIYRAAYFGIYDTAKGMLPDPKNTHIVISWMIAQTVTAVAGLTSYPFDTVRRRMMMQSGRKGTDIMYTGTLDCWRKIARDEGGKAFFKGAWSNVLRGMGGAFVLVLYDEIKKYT
Also: in the data inactive means no Kd found up to 30 µM.

Compound | Kd (Activin receptor type-1) | Kd [1] | Kd [2] | Kd [3] | Kd [4] | Kd [5] | Kd [6] | Kd [7] | Kd [8] | Kd [9] | Kd (ADP/ATP translocase 2)
Cc1cc(Nc2ncc(Cl)c(Nc3ccccc3S(=O)(=O)C(C)C)n2)c(OC(C)C)cc1C1CCNCC1 [CERITINIB] | > 30 µM (inactive) | > 30 µM (inactive) | > 30 µM (inactive) | > 30 µM (inactive) | > 30 µM (inactive) | > 30 µM (inactive) | > 30 µM (inactive) | > 30 µM (inactive) | > 30 µM (inactive) | > 30 µM (inactive) | > 30 µM (inactive)
COc1c(OCCCN2CCOCC2)ccc2c1N=C(NC(=O)c1cnc(N)nc1)N1CCN=C21 [COPANLISIB] | > 30 µM (inactive) | > 30 µM (inactive) | > 30 µM (inactive) | > 30 µM (inactive) | > 30 µM (inactive) | > 30 µM (inactive) | > 30 µM (inactive) | > 30 µM (inactive) | > 30 µM (inactive) | 4.49 µM | > 30 µM (inactive)
CCS(=O)(=O)N1CCN(c2ccc(Nc3ncc(C(N)=O)c(NC4CC4)n3)cc2)CC1 [Cerdulatinib Hydrochloride] | > 30 µM (inactive) | > 30 µM (inactive) | > 30 µM (inactive) | > 30 µM (inactive) | > 30 µM (inactive) | > 30 µM (inactive) | > 30 µM (inactive) | 3.06 µM (active) | > 30 µM (inactive) | > 30 µM (inactive) | > 30 µM (inactive)
O=C(Nc1cc(C(F)(F)F)cc(C(F)(F)F)c1)c1cc(Cl)ccc1O [IMD-0354] | > 30 µM (inactive) | > 30 µM (inactive) | > 30 µM (inactive) | > 30 µM (inactive) | > 30 µM (inactive) | > 30 µM (inactive) | > 30 µM (inactive) | > 30 µM (inactive) | > 30 µM (inactive) | > 30 µM (inactive) | > 30 µM (inactive)
CNC(=O)c1nn(C)c2c1C(C)(C)Cc1cnc(Nc3ccc(N4CCN(C)CC4)cc3)nc1-2 [MILCICLIB] | 0.477 µM (active) | > 30 µM (inactive) | > 30 µM (inactive) | > 30 µM (inactive) | > 30 µM (inactive) | > 30 µM (inactive) | 14 µM (active) | > 30 µM (inactive) | 1.99 µM (active) | > 30 µM (inactive) | > 30 µM (inactive)
CN(C[C@@H]1COCCO1)S(=O)(=O)Nc1ccc2ccc3ncc(-c4cnn(C)c4)cc3c(=O)c2c1 [MK-2461] | > 30 µM (inactive) | > 30 µM (inactive) | > 30 µM (inactive) | > 30 µM (inactive) | > 30 µM (inactive) | > 30 µM (inactive) | > 30 µM (inactive) | > 30 µM (inactive) | 0.278 µM (active) | > 30 µM (inactive) | > 30 µM (inactive)

Other lines, results leading:

Kd (Activin receptor type-1) | Kd [1] | Kd [2] | Kd [3] | Kd [4] | Kd [5] | Kd [6] | Kd [7] | Kd [8] | Kd [9] | Kd (ADP/ATP translocase 2) | Compound
> 30 µM (inactive) | > 30 µM (inactive) | > 30 µM (inactive) | > 30 µM (inactive) | > 30 µM (inactive) | > 30 µM (inactive) | > 30 µM (inactive) | > 30 µM (inactive) | > 30 µM (inactive) | > 30 µM (inactive) | > 30 µM (inactive) | COCC(=O)NC/C=C/c1ccc2ncnc(Nc3ccc(Oc4ccc(C)nc4)c(C)c3)c2c1 [CP-724714]
> 30 µM (inactive) | > 30 µM (inactive) | 1.04 µM (active) | > 30 µM (inactive) | > 30 µM (inactive) | > 30 µM (inactive) | > 30 µM (inactive) | > 30 µM (inactive) | > 30 µM (inactive) | > 30 µM (inactive) | > 30 µM (inactive) | C#Cc1cccc(Nc2ncnc3cc(OC)c(OCCCCCCC(=O)NO)cc23)c1 [CUDC-101]
> 30 µM (inactive) | > 30 µM (inactive) | > 30 µM (inactive) | > 30 µM (inactive) | > 30 µM (inactive) | > 30 µM (inactive) | > 30 µM (inactive) | 1.69 µM (active) | > 30 µM (inactive) | > 30 µM (inactive) | > 30 µM (inactive) | Cc1cccc(-c2nn3c(c2-c2ccnc4ccc(C(N)=O)cc24)CCC3)n1 [GALUNISERTIB]
> 30 µM (inactive) | > 30 µM (inactive) | > 30 µM (inactive) | > 30 µM (inactive) | > 30 µM (inactive) | > 30 µM (inactive) | > 30 µM (inactive) | > 30 µM (inactive) | > 30 µM (inactive) | > 30 µM (inactive) | > 30 µM (inactive) | COc1ccc(S(=O)(=O)N(C(C)=O)c2ccccc2/C=C/c2cc[n+]([O-])cc2)cc1 [HMN-214]
> 30 µM (inactive) | > 30 µM (inactive) | > 30 µM (inactive) | > 30 µM (inactive) | > 30 µM (inactive) | > 30 µM (inactive) | > 30 µM (inactive) | > 30 µM (inactive) | > 30 µM (inactive) | > 30 µM (inactive) | > 30 µM (inactive) | CNC(=O)c1cccc2cc(Oc3ccnc4cc(OCC5(N)CC5)c(OC)cc34)ccc12 [LUCITANIB]
> 30 µM (inactive) | > 30 µM (inactive) | > 30 µM (inactive) | > 30 µM (inactive) | > 30 µM (inactive) | > 30 µM (inactive) | > 30 µM (inactive) | > 30 µM (inactive) | 0.956 µM (active) | > 30 µM (inactive) | > 30 µM (inactive) | Cn1cc(-c2cnc3ccc4ccc(CS(=O)(=O)NCc5ccccn5)cc4c(=O)c3c2)cn1 [MK-8033]
> 30 µM (inactive) | > 30 µM (inactive) | > 30 µM (inactive) | > 30 µM (inactive) | > 30 µM (inactive) | > 30 µM (inactive) | > 30 µM (inactive) | > 30 µM (inactive) | > 30 µM (inactive) | > 30 µM (inactive) | > 30 µM (inactive) | FC(F)(F)c1ccc(/C=C/c2nc(COc3ccc(CCCCn4ccnn4)cc3)co2)cc1 [MUBRITINIB]
